# Values of other authors as cited in patent publication US20020046426A1, “Application of carbonyl compounds in the process of tanning hides” (RHODIA BRASIL LTDA., priority 1999, published 2002).
# What was measured:
# mice = settings: mouse, in vivo, po
SMILES,LD50 (mice),irritation to the eyes (eyes)
"CC(O)CC=O (centres unmarked) [aldol, 3-hydroxyl butanal]",2180 mg/kg,
"C/C=C/C=O [crotonaldehyde, 2-butenal]",,extremely irritant to the eyes
